{"source": "patent EP0906096B1", "about": "“USE OF HYDROXYPROLINES FOR THE MANUFACTURE OF A MEDICAMENT FOR INHIBITING LEUKOCYTE INVASION OF TISSUES” (Chephasaar Chem.-Pharm. Fabrik GmbH, priority 1996, dated 1997)", "key": {"[1]": {"test_system": "eosinophiles Lungeninfiltrat", "experiment": "Acute allergic inflammation: protein-induced eosinophilic lung infiltrate in sensitised guinea pigs", "assay_type": "in vivo, Meerschweinchen", "from_the_text": "In Modellen der akuten allergischen Entzündung, wie z."}, "Blutplättchen": {"test_system": "Blutplättchen", "experiment": "Ex vivo platelet function after oral intake", "assay_type": "in vivo", "details": "volunteers, 400 - 800 mg"}, "Granulozyten [2]": {"test_system": "Granulozyten", "experiment": "Adhesion of granulocytes to an endothelial layer (method of Hahne et al. 1993)", "assay_type": "cell-based", "from_the_text": "Gemäß M. Hahne et al. (1993), J. Cell. Biol. 121, 655-664 wurde die IC50-Konzentration von Hydroxyprolinderivaten, die zu einer 50 %igen Reduktion der Adhäsion von Granulozyten an einer Endothelschicht führte, bestimmt. Als besonders wirksam zeigte sich die an R2 acetylierte Verbindung."}, "Granulozyten [3]": {"test_system": "Granulozyten", "experiment": "Ex vivo adhesion of volunteers' granulocytes to endothelia after oral intake", "assay_type": "in vivo, Menschen", "from_the_text": "Gesunde Probanden erhielten eine einmalige Dosis von N-Acetylhydroxyprolin zum Zeitpunkt 0. Unmittelbar vorher und zu den genannten Zeitpunkten wurde Blut abgenommen und die Leukozyten mit Hilfe der Lymphoprep-Separation (Histoprep, Biologische Arbeitsgemeinschaft GmbH, Lich, Germany) präpariert. Die Adhäsion wurde wie in M. Hahne et al. (1993), J . Cell Biol. 121, 655 - 664 beschrieben bestimmt. Die durch LPS-Stimulation erhöhte Adhäsion ist evident (⌀ im Vergieich zu LPS, Zeitpunkt ⌀)."}, "[4]": {"test_system": "ischämisch traumatisiertes Gefäßendothel", "experiment": "Post-ischaemia model (Nolte et al. 1995), leukocyte adherence in postcapillary venules", "assay_type": "in vivo, Hamster", "details": "50 mg/kg given 10 min before reperfusion; effect present after 0,5 and 2 hours; in all animals", "experimental": "In dem von Nolte et al., Int. J. Microcirc. 15 (suppl 1) (1995), 9 - 16 beschriebenen Postischämiemodell beim Hamster zeigte sich, dass N-Acetylhydroxyprolin (Oxazeprol) bei Dosierungen von 50 mg/kg kurz yor Reperfusion (10 min) gegeben, die Adhäsion der Leukozyten am ischämisch traumatisierten Gefäßendothel um ca. 50 % reduzierte. Dieser Effekt war nach 0,5 und 2 Stunden vorhanden (Abb. 3). Er trat in allen untersuchten Tieren auf. Oxazeprol verhielt sich damit ähnlich wie Buflomidil (ein PDE4-Hemmer), Iloprostol (ein PhI-Analog) und monoklonale Antikörper gegen Selektine, d.h. N-Acetylhydroxyprolin verhinderte spezifisch die im Gefolge einer Noxe (Ischämie) auftretende Leukozytenadhäsion und -invasion ins Gewebe."}, "[5]": {"test_system": "Lymphozyten und Monozyten", "experiment": "Ex vivo adhesion of volunteers' lymphocytes and monocytes after oral intake", "assay_type": "in vivo, Menschen", "details": "400 - 800 mg"}, "[6]": {"test_system": "Carrageenin-Pfotenödem, Adjuvansarthritis, Baumwollgranulom", "experiment": "Standard inflammation models (carrageenan paw oedema, adjuvant arthritis, cotton granuloma), histology", "assay_type": "in vivo", "details": "short-term and long-term application; histological work-up"}, "[7]": {"details": "ex vivo, volunteers, single or repeated intake of 400 - 800 mg"}}, "data": [{"smiles": "CC(=O)N1C[C@H](O)C[C@H]1C(=O)O", "note": "[N-Acetylhydroxyprolin, N-Acetyl-L-hydroxyprolin]", "values": [{"measurement": "Einwanderung von Granulozyten", "setting": "[1]; late phase", "value": "signifikant reduziert"}, {"measurement": "Einwanderung der eosinophilen Granulozyten", "setting": "[1]; sensitised guinea pig, protein-induced", "value": "keinen meßbaren Effekt"}, {"measurement": "Funktion der Blutplättchen", "setting": "Blutplättchen", "value": "nicht tangiert"}, {"measurement": "noch meßbar bei", "setting": "Granulozyten [2]; concentration at which inhibition of granulocyte adhesion is still measurable, unit not given", "value": "10^-9"}, {"measurement": "IC50", "setting": "Granulozyten [2]; concentration giving 50 % reduction of granulocyte adhesion to an endothelial layer, unit inferred", "value": "~100", "unit": "nM"}, {"measurement": "Adhäsion der Granulozyten an Endothelien", "setting": "Granulozyten [3]; [7]", "value": "reduzierte Adhäsion"}, {"measurement": "Dauer des Effekts auf die Granulozytenadhäsion", "setting": "Granulozyten [3]; [7]", "value": "24 - 48 Stunden"}, {"measurement": "durch LPS-Stimulation erhöhte Adhäsion", "setting": "Granulozyten [3]; healthy volunteers, single dose at time 0, after 24 hours (Abb. 2)", "value": "weitgehend durch N-Acetylhydroxyprolin gehemmt"}, {"measurement": "Reduktion der Adhäsion der Leukozyten am ischämisch traumatisierten Gefäßendothel", "setting": "[4]", "value": "ca. 50%"}, {"measurement": "Effekte auf Lymphozyten und Monozytenadhäsion", "setting": "[5]", "value": "verschwanden hingegen nach wenigen Stunden"}, {"measurement": "Invasion der Granulozyten", "setting": "[6]", "value": "deutliche reduzierte Invasion"}, {"measurement": "Invasion von monozytären Leukozyten", "setting": "[6]", "value": "kaum verändert"}]}]}
